What was measured:
[1] = Rat obesity induced by cafeteria diet, preventative pre-treatment (Table 3); assay type: in vivo, Wistar Kyoto rats; details: 300 mg/kg oral, after two weeks on cafeteria diet; obese control 308 ± 17, lean control 280 ± 16; * lower than obese controls, ‡ indistinguishable
Experimental: (§1) In a further experiment, the effect of various molecules at a single dose (600 mg/kg) was investigated. […] In this sense, modification on the α-carbon and the double bond in cis configuration are crucial elements for producing the therapeutic effect indicated above. […] Finally, the effect of α-derivatives of cis-monounsaturated fatty acids on the prevention of obesity was investigated. For this, a model of rat obesity induced by a cafeteria diet, where the hypercaloric food increases the weight of the animals very markedly, was used. There were various experimental groups (see Table 3), each of which consisted of 6 female Wistar Kyoto rats of 250-300 g in weight. All the animals received a standard diet for 2 weeks. In addition, 2 of the groups received an oral preventative pre-treatment of vehicle and the other groups received 300 mg/kg of the fatty acids indicated below. Afterwards, one of the control groups was maintained on a standard diet (lean control) and the other was fed on a cafeteria diet (obese control). The treated animal groups were fed on the cafeteria diet. Preventative pre-treatment was maintained for all the groups. After two weeks on these diets, the lean control group had increased their body weight by an average of 16±16 g, while the obese control group had increased their body weight by an average of 43±17 g (statistically significance difference, p<0.01).
(§2) The weight of treated animals was statistically less than the weight of obese control rats and statistically indistinguishable from that of lean control rats.

A549 cells = assay: Growth/viability of A549 lung cancer cells in culture (cell count); assay type: cell-based, human
Experimental: FIG. 3A. Cancer cells (A549) were treated with various concentrations of OHOD and MOD11 to determine whether the effect was dependent on the concentration. […] These cells were treated with different concentrations (0-400 μM) of OHOD and MOD11 and the number of cells was determined by flow cytometry.
FIG. 3B. Cancer cells (A549) were treated with compounds indicated on the horizontal axis for 48 hours at 150 μM. Then, the cells were counted and their number and percent of untreated (control) represented on the vertical axis.
Also, a series of α-derivatives of cis-monounsaturated fatty acids were used to investigate their effectiveness in cancer treatment. Two types of experiment were performed. Firstly, the dependency of the anti-tumour effect on concentration was investigated. To perform these experiments, human lung cancer cells (A549) were cultivated in RPMI medium, supplemented with 10% foetal bovine […], 10 mM Hepes (pH 7.4), 2 mM glutamine, 2 g/l bicarbonate, 1 g/l glucose, 100 units/ml penicillin, 0.1 mg/ml streptomycin, 0.25 μg/ml Amphotericin B, at 37° C. and in the presence of 5% CO2. In a first experimental series, these cells were treated with various concentrations (0-400 μM) of OHOD and MOD11 and the number of cells was determined by flow cytometry (FIG. 3A). […] In a second series, the anti-tumour effectiveness on A549 lung cancer cells was investigated at a single concentration (150 μM) and a time of 48 hours (FIG. 3B). […] Obviously, among the previous molecules, some lacked both modifications on the α-carbon and the double bond in cis configuration (EO, HDO, ODO) and had no therapeutic effect. […]

[2] = biological target: T1, cyclooxygenases-1 (COX-1) (Homo sapiens, UniProt P23219); assay: COX-1 activity in U937 differentiated monocytes (Cayman COX-1 inhibitor screening system); assay type: cell-based; details: 250 μM, 6 hours; compared with fatty acids not of Formula I, p<0.05
T1 construct: endogenous in cells; host or cells: U937 differentiated monocytes
T1 sequence (P23219 24-599): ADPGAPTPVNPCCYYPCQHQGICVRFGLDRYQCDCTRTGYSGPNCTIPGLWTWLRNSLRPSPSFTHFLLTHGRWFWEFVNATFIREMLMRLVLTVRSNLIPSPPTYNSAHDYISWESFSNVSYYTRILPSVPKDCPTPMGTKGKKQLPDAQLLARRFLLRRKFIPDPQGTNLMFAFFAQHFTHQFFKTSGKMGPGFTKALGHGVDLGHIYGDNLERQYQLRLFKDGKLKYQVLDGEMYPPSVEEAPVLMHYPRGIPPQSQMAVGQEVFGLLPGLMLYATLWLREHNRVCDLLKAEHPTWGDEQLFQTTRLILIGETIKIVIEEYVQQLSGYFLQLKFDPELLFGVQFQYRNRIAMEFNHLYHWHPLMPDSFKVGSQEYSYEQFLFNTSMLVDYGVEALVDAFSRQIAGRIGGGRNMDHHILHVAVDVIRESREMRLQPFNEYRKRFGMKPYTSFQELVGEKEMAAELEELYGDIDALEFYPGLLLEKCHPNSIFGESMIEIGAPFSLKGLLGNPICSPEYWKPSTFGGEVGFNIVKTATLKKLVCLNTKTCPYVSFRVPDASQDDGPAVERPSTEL
Experimental: FIG. 19A. Effect of various fatty acids in the inhibition of the activity of cyclooxygenases-1 (COX-1) (Cayman COX-1 inhibitor screening system). […] Cell cultures (U937 differentiated monocytes) were treated with the fatty acids of the invention (250 μM, 6 hours).
(§3) In an additional study on the release of various proinflammatory cytokines (IL-1b, IL-6, IL-8, IL-10) and TNF-α in U937 monocytes stimulated with bacterial lipopolysaccharide (LPS), a marked reduction in the levels of these molecules was observed after treatments with OHHD at a concentration of 250 μM and 72 h incubation (Table 4). The effect of the α-derivatives of cis-monounsaturated fatty acids (250 μM, 6 h) on the activity and expression of the COX-1 and COX-2 cyclooxygenases was investigated in the same system.

[3] = system: A549 cells of human lung adenocarcinoma; assay: Prevention of tumour development in nude mice injected with A549 cells; assay type: in vivo; details: 400 mg/kg per day oral, 2 weeks before and one month after A549 injection, compared with fatty acids not of Formula I, p<0.05
Text: FIG. 2. Preventative effect of various fatty acids against tumour development. […] Animals received treatment before injection of tumour cells and the treatment was subsequently maintained. Animals of the control group were not treated and the volume of their tumours was taken as the reference value (100%).
To determine whether the fatty acids of the invention have applications in the prevention of the development of tumour processes, an animal cancer model was used. This model consisted of immune-deprived animals ([Crl:Nu(Ico)-Fox 1] nude mice in which non-microcytic human lung cancer cells were injected (5×10^6 A549 cells per animal). The control group (infected with cancer cells but untreated) started to develop tumours that were visible after a few days. The sizes of the tumours were measured for the first time at 10 days after implanting the tumour and measurements continued for up to 31 days after the implantation with a digital calliper. The volume of the tumours was calculated with the following equation: v=w^2×l/2 where v is the volume of the tumour, w is its width and l is the length. Preventative treatments against development of the cancer were applied. To carry out these treatments, 400 mg/kg were administered per day for 2 weeks before the injection of tumour cells. This treatment was continued for one month after the implantation of the tumour cells and the volume of the tumours in the animals was measured. Each experimental group was composed of 8 animals. Oral administration of α-derivatives of cis-monounsaturated fatty acids prevented cancer development (A549 cells of human lung adenocarcinoma) (FIG. 2). […] Therefore it was concluded that the introduction of a double bond in the cis configuration in the structure of the fatty acid is a critical factor in the prevention and treatment by fatty acids of cancer development.

cyclooxygenase-2 (COX-2) = assay: Cellular concentration of COX-2 in U937 differentiated monocytes (immunoblot); assay type: cell-based, human; details: 250 μM, 6 hours; compared with fatty acids not of Formula I, p<0.05
Experimental: FIG. 19B. Effect of various fatty acids in the inhibition (concentration of protein) of cyclooxygenase-2 (immunoblot of COX-2). […] Cell cultures (U937 differentiated monocytes) were treated with the fatty acids of the invention (250 μM, 6 hours).
as §3

SF767 human tumour cells = assay: Growth of SF767 tumour cells in culture; assay type: cell-based; details: concentration that reduces the number of cells to half
Experimental: In a second experimental series, designed to discover whether these molecules are effective in treatment of different types of tumours, the effect of OHOD at various concentrations on human cells of different types of cancer was studied. These experiments were performed as described before, except that the M220 and HT-29 cell lines were cultured in DMEM medium and the MDA-MB-231 line was incubated in Leibowitz L-15 medium supplemented with 15% foetal bovine […]. […] Where the nature of the tumour process requires, application can be topical (use on the skin of active products for the treatment of melanoma and other cutaneous abnormalities of cancerous nature), which can be considered as cosmetic treatments when attempts are made to correct aesthetic defects.

[4] = Levels of cholesterol, triglycerides and glucose in rats after oral treatment; assay type: in vivo, rat; details: rats, daily dose of 600 mg/kg oral; untreated controls = 100%
Experimental: FIG. 13. The four bars, from left to right respectively, show the effect of treatments with vehicle (control, first bar), OHOD at 200 mg/kg (second bar), OHOD at 400 mg/kg (third bar) and OHOD at 600 mg/kg (fourth bar) on the cholesterol levels (group of four bars to the left), triglycerides (group of four bars in the middle) and glucose (group of four bars to the right). The treatments were oral in all cases and were maintained for 30 days. The values indicated are the average obtained in 6 animals per group.
FIG. 14. Effect of treatment with vehicle (control) or with the fatty acids of the invention (600 mg/kg) on the levels of cholesterol, triglycerides and glucose. The values indicated are the average of the values obtained in 6 animals. Each group of three bars represents treatment with a different fatty acid with the left bar corresponding to cholesterol, the middle bar to triglycerides and the right bar to glucose.
Metabolic diseases form a set of pathologies characterised by the accumulation or deficit of certain molecules (cholesterol, triglycerides, glucose, etc.) in the serum or tissues. These changes are the reflection of dysfunctions that are normally associated with errors in the activity of certain enzymes or in the control of these proteins. Among the most important metabolopathies are hypercholesterolemia (elevated levels of cholesterol), hypertriglyceridemia (elevated levels of triglycerides) and diabetes (elevated levels of glucose). These pathologies have high rates of incidence, morbidity and mortality, so that treatment is a first order necessity. […] For these experiments, the dose of fatty acid indicated (0, 200, 400 and 600 mg/kg) was supplied daily via the oral route. At the end of the treatment (30 days), blood was sampled from control and treated animals (n=6) and the levels of cholesterol, triglycerides and glucose were determined using standard colorimetric methods.
as §1

hypertensive rats = assay: Arterial pressure in hypertensive rats after 8-day treatment (Table 5); assay type: in vivo, rat; details: arterial pressure, hypertensive rats, 8-day treatment, 400 mg/kg oral
[5] = Body weight of rats on cafeteria diet, no pre-treatment (Table 5); assay type: in vivo, rat; details: cafeteria diet for 2 weeks, 300 mg/kg daily oral, no pre-treatment
Text: as §2

[6] = system: SF767 human brain cancer cells; assay: Tumour volume in nude mice infected with SF767 human brain cancer cells; assay type: in vivo; details: 600 mg/kg daily for 50 days, p<0.001 vs control
Experimental: FIG. 6A. Effect of different salts of OHOD on human lung cancer in an animal cancer model. The volume of tumours in nude mice infected with SF767 human brain cancer cells (expressed as a percent compared to control) receiving various treatments. The animals received a vehicle (water: Control), 600 mg/kg of OHOD in the form of free fatty acid (OHOD), 600 mg/kg of sodium salt of OHOD (Na-OHOD) or 600 mg/kg of ammonium salt of OHOD (NH3OHOD) daily for 50 days.
FIG. 6B. Effect of different salts of OHOD on human lung cancer in an animal cancer model. The effect of different doses of sodium salt of OHOD (Na-OHOD) are shown on tumour volumes in mice infected with SF767 cells and treated with vehicle (control, 0 mg/kg), 100 mg/kg (100), 200 mg/kg (200), 400 mg/kg (400) and 600 mg/kg (600) for 50 days. * p<0.05; ***p<0.001.
One important characteristic of the molecules covered in the present invention is that they can form various types of salts. FIG. 6A and Table 5 show the therapeutic effects of various α-derivatives of cis-monounsaturated fatty acids and their salts. […] The specificity of this effect is determined by the relation between the dose and the effect these molecules have on the volume of human tumours implanted in animals (FIG. 6B).

IL-1b = assay: Proinflammatory cytokines in U937 monocytes stimulated with LPS; assay type: cell-based, human; details: 250 μM, 72 h; Control 12 ± 2, LPS 132 ± 2
Experimental: as §3

IL-8 = assay: as above; assay type: cell-based, human; details: 250 μM, 72 h; Control 345 ± 7, LPS 967 ± 8
Experimental: as §3

IL-10 = assay: as above; assay type: cell-based, human; details: 250 μM, 72 h; Control 32 ± 1, LPS 315 ± 9
Experimental: as §3

TNF-α = assay: as above; assay type: cell-based, human; details: 250 μM, 72 h; Control 15 ± 6, LPS 1504 ± 7
Experimental: (§4) FIG. 18. Levels of interleukin 6 IL-6 (left bar) and […] TNF-α (right bar) in human monocytes in the absence (control) or presence of a pro-inflammatory treatment with bacterial lipopolysaccharide (LPS). Cells treated with LPS were cultured in the absence (Control+LPS) or presence of various fatty acids shown on the horizontal axis.
as §3

IL-6 = assay: as above; assay type: cell-based, human; details: 250 μM, 72 h; Control 24 ± 3, LPS 1072 ± 4
Experimental: as §4, §3

| SMILES | Final weight [1] | effect on tumour cells at 200 to 400 μM (A549 cells; Doses of 200 to 400 μM, A549) | inhibition of COX-1 activity (% of control) [2] | tumour volume (prevention of tumour development) [3] | cellular concentration of COX-2 (% of control) (cyclooxygenase-2 (COX-2)) | IC50 (SF767 human tumour cells) [µM] | % control CHO (cholesterol) [4] [% control] | % control TG (triglycerides) [4] [% control] | PA (control 214 mmHg) (hypertensive rats) [mmHg] | Body weight (g) (control = 311 g) [5] | volume of tumours (percent compared to control) [6] | IC50 (A549 cells; concentration that reduces the number of cells to half) [µM] | IL-1b, LPS + OHHD (IL-1b) [pg/mL] | IL-8, LPS + OHHD (IL-8) [pg/mL] | IL-10, LPS + OHHD (IL-10) [pg/mL] | TNF-α, LPS + OHHD (TNF-α) [pg/mL] | IL-6, LPS + OHHD (IL-6) [pg/mL] |
| --- | --- | --- | --- | --- | --- | --- | --- | --- | --- | --- | --- | --- | --- | --- | --- | --- | --- |
| CCCCCC/C=C\CCCCCCCCC(C)C(=O)O (stereo not drawn) [MOD11, α-Methyl-cis-Δ11-octadecenoic] | 274 ± 18* g | total elimination of tumour cells | more significant effect | more significant effect | more significant effect | – | – | – | – | – | – | – | – | – | – | – | – |
| CCCCCCCC/C=C\CCCCCCC(O)C(=O)O.N (stereo not shown) [NH3-OHOD] | – | – | – | – | – | 85 | 59 | 62 | 149 | 290 | significant reductions in the size of tumours | 81 | – | – | – | – | – |
| CCCCCC/C=C\CCCCCCC(O)C(=O)O (stereo not drawn) [OHHD, α-Hydroxy-cis-Δ9-hexadecenoic] | 275 ± 19* g | – | more significant effect | more significant effect | more significant effect | – | – | – | – | – | – | – | 41 ± 5 | 529 ± 7 | 53 ± 3 | 65 ± 9 | 68 ± 8 |
| CCCCCCCC/C=C\CCCCCCC(C(=O)O)C(F)(F)F (stereo not drawn) [TFMOD, α-Trifluoromethyl-cis-Δ9-octadecenoic] | 278 ± 14* g | – | more significant effect | more significant effect | more significant effect | – | – | – | – | – | – | – | – | – | – | – | – |
